Measurements taken from patent US11613522B2, “Herbicidally active 3-phenylisoxazoline-5-carboxamides of tetrahydro- and dihydrofurancarboxamides” (BAYER AKTIENGESELLSCHAFT, priority 2017, dated 2023).

Columns and labels:
Type in all cases: in vivo
Cyperus esculentus = test: Pre-emergence herbicidal activity against CYPES; settings: dosage 80 g/ha, scored visually after about 3 weeks vs untreated controls
From the text: (§1) 1. Pre-emergence herbicidal action against harmful plants and crop plant compatibility Seeds of monocotyledonous and dicotyledonous weed plants and crop plants are placed in plastic or wood fiber pots and covered with soil. The compounds of the invention, formulated in the form of wettable powders (WP) or as emulsion concentrates (EC), are then applied onto the surface of the covering soil as aqueous suspension or emulsion with addition of 0.5% additive at a water application rate of 600 l/ha (converted). After the treatment, the pots are placed in a greenhouse and kept under good growth conditions for the trial plants. After about 3 weeks, the effect of the preparations is scored visually in comparison with untreated controls as percentages. For example, 100% activity=the plants have died, 0% activity=like control plants. [table]

Pharbitis purpurea [1] = test: Post-emergence herbicidal activity against PHBPU; settings: Ipomoea purpurea, 504 h, dosage 320 g/ha, rated visually after about 3 weeks
Method in brief: (§2)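 Post-emergence foliar spray of wettable-powder or emulsion-concentrate formulations (0.5% additive, 600 l/ha water) onto one-leaf-stage greenhouse plants. Percent activity scored by eye after ~3 weeks against untreated plants; 0% equals control growth, 100% equals plant death.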

Abutilon theophrasti [2] = test: Pre-emergence herbicidal activity against ABUTH; settings: dosage 80 g/ha, scored visually after about 3 weeks vs untreated controls
From the text: as §1

Avena fatua [3] = test: Pre-emergence herbicidal activity against AVEFA; settings: Avena fatua, 504 h, dosage 80 g/ha, scored visually after about 3 weeks vs untreated controls, read-out: Pre-emergence herbicidal activity in % against AVEVA (AVEFA)
Method in brief: (§3)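 Emulsion concentrates or wettable powders, diluted in water containing 0.5% additive, go onto covering soil at a spray volume of 600 l/ha. Percent herbicidal effect is judged by eye about 3 weeks later in the greenhouse, 0% meaning like control plants and 100% meaning dead.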

Setaria viridis [4] = test: Pre-emergence herbicidal activity against SETVI; settings: Setaria viridis, 504 h, dosage 80 g/ha, scored visually after about 3 weeks vs untreated controls
Method in brief: as §3

Lolium rigidum [5] = test: Post-emergence herbicidal activity against LOLRI; settings: Lolium rigidum, 504 h, dosage 320 g/ha, rated visually after about 3 weeks
Method in brief: as §2

Lolium rigidum [6] = test: Pre-emergence herbicidal activity against LOLRI; settings: Lolium rigidum, 504 h, dosage 80 g/ha, scored visually after about 3 weeks vs untreated controls
Method in brief: as §3

Alopecurus myosuroides [7] = test: Post-emergence herbicidal activity against ALOMY; settings: Alopecurus myosuroides, 504 h, dosage 320 g/ha, rated visually after about 3 weeks
Method in brief: as §2

Hordeum murinum [8] = test: Pre-emergence herbicidal activity against HORMU; settings: Hordeum murinum, 504 h, dosage 80 g/ha
Method in brief: as §3

Stellaria media [9] = test: Post-emergence herbicidal activity against STEME; settings: Stellaria media, 504 h, dosage 320 g/ha, rated visually after about 3 weeks
Method in brief: as §2

Veronica persica [10] = test: Post-emergence herbicidal activity against VERPE; settings: Veronica persica, 504 h, dosage 320 g/ha, rated visually after about 3 weeks
Method in brief: as §2

Amaranthus retroflexus [11] = test: Pre-emergence herbicidal activity against AMARE; settings: Amaranthus retroflexus, 504 h, dosage 80 g/ha, scored visually after about 3 weeks vs untreated controls
Method in brief: as §3

Polygonum convolvulus [12] = test: Pre-emergence herbicidal activity against POLCO; settings: Fallopia convolvulus, 504 h, dosage 80 g/ha, scored visually after about 3 weeks vs untreated controls
Method in brief: as §3

Viola tricolor [13] = test: Post-emergence herbicidal activity against VIOTR; settings: Viola tricolor, 504 h, dosage 320 g/ha, rated visually after about 3 weeks
Method in brief: as §2

[14] = Pre-emergence herbicidal action against harmful plants (summary of the tables); settings: 504 h, application rate of 0.08 kg of active substance or less per hectare, read-out: herbicidal action, pre-emergence treatment (very good activity)
Method in brief: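 Seeds of weeds and crops were covered with soil, then WP or EC formulations were sprayed onto the soil surface pre-emergence at 600 l/ha water with 0.5% additive. Plants were grown in a greenhouse for about 3 weeks, and damage was scored visually as a percentage versus untreated controls (100% = plants dead).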

Veronica persica [15] = test: Pre-emergence herbicidal activity against VERPE; settings: Veronica persica, 504 h, dosage 80 g/ha
Method in brief: as §3

Alopecurus myosuroides [16] = test: Pre-emergence herbicidal activity against ALOMY; settings: Alopecurus myosuroides, 504 h, dosage 80 g/ha, scored visually after about 3 weeks vs untreated controls
Method in brief: as §3

Stellaria media [17] = test: Pre-emergence herbicidal activity against STEME; settings: Stellaria media, 504 h, dosage 80 g/ha, scored visually after about 3 weeks vs untreated controls
Method in brief: as §3

Abutilon theophrasti [18] = test: Post-emergence herbicidal activity against ABUTH; settings: Abutilon theophrasti, 504 h, dosage 320 g/ha, rated visually after about 3 weeks
Method in brief: as §2

Echinochloa crus-galli [19] = test: Pre-emergence herbicidal activity against ECHCG; settings: Echinochloa crus-galli, 504 h, dosage 80 g/ha, scored visually after about 3 weeks vs untreated controls
Method in brief: as §3

Echinochloa crus-galli [20] = test: Post-emergence herbicidal activity against ECHCG; settings: Echinochloa crus-galli, 504 h, dosage 320 g/ha, rated visually after about 3 weeks
Method in brief: as §2

Setaria viridis [21] = test: Post-emergence herbicidal activity against SETVI; settings: Setaria viridis, 504 h, dosage 320 g/ha, rated visually after about 3 weeks
Method in brief: as §2

Polygonum convolvulus [22] = test: Post-emergence herbicidal activity against POLCO; settings: Fallopia convolvulus, 504 h, dosage 320 g/ha, rated visually after about 3 weeks
Method in brief: as §2

Avena fatua [23] = test: Post-emergence herbicidal activity against AVEFA; settings: Avena fatua, 504 h, dosage 320 g/ha, rated visually after about 3 weeks
Method in brief: as §2

Pharbitis purpurea [24] = test: Pre-emergence herbicidal activity against PHBPU; settings: dosage 80 g/ha, scored visually after about 3 weeks vs untreated controls
Method in brief: as §3

Viola tricolor [25] = test: Pre-emergence herbicidal activity against VIOTR; settings: Viola tricolor, 504 h, dosage 80 g/ha, scored visually after about 3 weeks vs untreated controls
Method in brief: as §3

Amaranthus retroflexus [26] = test: Post-emergence herbicidal activity against AMARE; settings: Amaranthus retroflexus, 504 h, dosage 320 g/ha, rated visually after about 3 weeks
Method in brief: as §2

Hordeum murinum [27] = test: Post-emergence herbicidal activity against HORMU; settings: Hordeum murinum, 504 h, dosage 320 g/ha, rated visually after about 3 weeks
Method in brief: as §2

| SMILES | pest or weed control at 320 g/ha (Pharbitis purpurea [1]) [%] | Pre-emergence herbicidal activity in % against ABUTH (Abutilon theophrasti [2]) [%] | pest or weed control at 80 g/ha (Avena fatua [3]) [%] | pest or weed control at 80 g/ha (Setaria viridis [4]) [%] | pest or weed control at 320 g/ha (Lolium rigidum [5]) [%] | pest or weed control at 80 g/ha (Lolium rigidum [6]) [%] | pest or weed control at 320 g/ha (Alopecurus myosuroides [7]) [%] | pest or weed control at 80 g/ha (Hordeum murinum [8]) [%] | pest or weed control at 320 g/ha (Stellaria media [9]) [%] | pest or weed control at 320 g/ha (Veronica persica [10]) [%] | pest or weed control at 80 g/ha (Amaranthus retroflexus [11]) [%] | pest or weed control at 80 g/ha (Polygonum convolvulus [12]) [%] | pest or weed control at 320 g/ha (Viola tricolor [13]) [%] | pest or weed control at 80 g/ha [14] [%] | pest or weed control at 80 g/ha (Veronica persica [15]) [%] | pest or weed control at 80 g/ha (Alopecurus myosuroides [16]) [%] | pest or weed control at 80 g/ha (Stellaria media [17]) [%] | pest or weed control at 80 g/ha (Echinochloa crus-galli [19]) [%] | pest or weed control at 320 g/ha (Echinochloa crus-galli [20]) [%] | pest or weed control at 320 g/ha (Setaria viridis [21]) [%] | further results |
| --- | --- | --- | --- | --- | --- | --- | --- | --- | --- | --- | --- | --- | --- | --- | --- | --- | --- | --- | --- | --- | --- |
| CC1(C(=O)NC2COCC2C(=O)N2CCCC2)CC(c2cc(F)cc(F)c2)=NO1 (stereo not shown) [Example I-09, 3-(3,5-difluorophenyl)-5-methyl-N-[4-(pyrrolidine-1-carbonyl)tetrahydrofuran-3-yl]-4H-isoxazole-5-carboxamide] | 80 |  |  |  |  |  |  |  |  |  |  |  |  |  |  |  |  |  |  |  | Pre-emergence herbicidal activity in % against CYPES (Cyperus esculentus): 100% |
| C=C[C@]1(C(=O)N[C@@H]2CO[C@H](C(=O)NOC)C2)CC(c2cc(F)cc(F)c2)=NO1 (mixture of isomers) [Example I-11, (5S)-3-(3,5-difluorophenyl)-N-[cis-5-(methoxycarbamoyl)tetrahydrofuran-3-yl]-5-vinyl-4H-isoxazole-5-carboxamide] | 80 | 100 | 100 | 100 | 90 | 100 | 90 | 90 | 90 | 80 | 100 | 100 | 80 | 80 to 100 | 90 | 100 | 100 | 100 | 90 | 90 | pest or weed control at 320 g/ha (Abutilon theophrasti [18]): 80%; pest or weed control at 320 g/ha (Polygonum convolvulus [22]): 80%; pest or weed control at 320 g/ha (Avena fatua [23]): 90%; Pre-emergence herbicidal activity in % against PHBPU (Pharbitis purpurea [24]): 90%; pest or weed control at 80 g/ha (Viola tricolor [25]): 100% |
| C=C[C@]1(C(=O)N[C@@H]2CO[C@H](C(=O)NS(C)(=O)=O)C2)CC(c2cc(F)cc(F)c2)=NO1 (mixture of isomers) [Example I-16, (5S)-3-(3,5-difluorophenyl)-N-[cis-5-(methylsulfonylcarbamoyl)tetrahydrofuran-3-yl]-5-vinyl-4H-isoxazole-5-carboxamide] | 80 |  | 100 | 100 | 90 | 100 | 90 | 100 | 90 | 80 | 100 | 100 | 80 | 80 to 100 | 90 | 100 | 100 | 100 | 90 | 80 | Pre-emergence herbicidal activity in % against CYPES (Cyperus esculentus): 100%; pest or weed control at 320 g/ha (Amaranthus retroflexus [26]): 90%; pest or weed control at 320 g/ha (Abutilon theophrasti [18]): 80%; pest or weed control at 320 g/ha (Hordeum murinum [27]): 80%; Pre-emergence herbicidal activity in % against PHBPU (Pharbitis purpurea [24]): 90%; pest or weed control at 80 g/ha (Viola tricolor [25]): 100% |
| C=C[C@]1(C(=O)N[C@@H]2CO[C@H](C(=O)N(C)C)C2)CC(c2cc(F)cc(F)c2)=NO1 (mixture of isomers) [Example I-17, (5S)-3-(3,5-difluorophenyl)-N-[cis-5-(dimethylcarbamoyl)tetrahydrofuran-3-yl]-5-vinyl-4H-isoxazole-5-carboxamide] | 80 | 80 | 100 | 100 | 90 | 100 | 90 | 100 | 90 | 80 | 100 | 100 | 80 | 80 to 100 | 100 | 90 | 100 | 100 | 80 | 90 | pest or weed control at 320 g/ha (Amaranthus retroflexus [26]): 90%; pest or weed control at 320 g/ha (Polygonum convolvulus [22]): 80%; pest or weed control at 320 g/ha (Hordeum murinum [27]): 80%; pest or weed control at 320 g/ha (Avena fatua [23]): 90%; Pre-emergence herbicidal activity in % against PHBPU (Pharbitis purpurea [24]): 90%; pest or weed control at 80 g/ha (Viola tricolor [25]): 100% |
| CNC(=O)C1COCC1NC(=O)C1(C)CC(c2cc(F)cc(F)c2)=NO1 (stereo not shown) [Example I-07, 3-(3,5-difluorophenyl)-5-methyl-N-[4-(methylcarbamoyl)tetrahydrofuran-3-yl]-4H-isoxazole-5-carboxamide] | 80 | 100 |  |  |  |  |  |  |  |  |  |  |  |  |  |  |  | 100 |  |  | pest or weed control at 320 g/ha (Polygonum convolvulus [22]): 80% |
